{"source": "patent US9994536B2", "about": "“Compounds and methods of treating neurological disorders” (TORREY PINES INSTITUTE FOR MOLECULAR STUDIES, priority 2014, dated 2018)", "key": {"[1]": {"test_system": "sAPPα in supernatants of 7WD10 cells", "assay": "Western blot sAPPα release assay, 7WD10 cells", "format": "cell-based", "settings": "10 nM, 7WD10 supernatant", "experimental": "(2). To ascertain that hits identified as a result of AlphaLISA assay are not due to artifacts of the detection system, the sAPPα levels were measured by Western blots as a secondary assay downstream of primary HTS to confirm hits or discard artifacts of the AlphaLISA assay. The assay was performed using a range of concentrations of hit compounds (10-5,000 nM). A hit compound named thiazole piperazine #244 (THPI-244) and THPI-326 induced dose-dependent increase of sAPPα in supernatants of 7WD10 cells (FIG. 1.3). […] Since compound THPI-244 increased sAPPα levels more than THPI-326, we focused on THPI-244 for further validation.\nWestern blot sAPPα release assay. 7WD10 cells were grown in 6-well plates and treated with test compounds and SAHA (vorinostat) at several concentrations in duplicate wells. After 24 h of drug exposure, the conditioned media (CM) was collected, centrifuged to remove cell debris and subjected to SDS-PAGE electrophoresis. sAPPα (6E10, mouse IgG from IBL America ltd) was detected using indicated antibody. […] Samples were subjected to SDS-PAGE, transferred and immunoblotted with indicated antibodies and detected by enhanced chemiluminescence method. Quantification of Western blot signals was done using ImageJ software."}, "[2]": {"test_system": "sAPPα released from 7WD10 cells (CHO cells stably expressing APP751)", "assay": "AlphaLISA sAPPα release assay (pilot HTS)", "format": "cell-based", "experimental": "(1). The pilot screen was performed using five 384 well plates. […] FDA approved oncology set was screened at 10 μM final assay concentration, while thiazole derivatives were screened at 5 μM. Seven hits from thiazole derivatives were identified using Ave+3SD rule (45) as a nominal cutoff for hit determination (FIG. 1.1 (bottom)). The hits represented a novel piperazine thiazole chemotype (FIG. 1.2).\nPilot screen of AlphaLISA sAPPα release assay. 8 μL of assay media (DMEM supplemented with 10% FBS and 1× Penicillin/Streptomycin) containing 20,000 cells were added to all wells of the assay plate, except column 1 where only media was added. Plates were incubated for 4 h at 37° C., 5% CO2, 95% RH after which 80 nL of test compounds in DMSO or DMSO alone were added to respective wells using a pin tool device (VP Scientific, San Diego). After 24 h of incubation at 37° C., 5% CO2, 95% RH, sAPPα AlphaLISA beads were added in 10 μL of buffer, equilibrated for 1 h, and AlphaLISA signal was measured using a Biotek H4 Synergy microplate reader (Biotek Inc). Three parameters were calculated on a per-plate basis: (a) the signal-to-background ratio (S/B); (b) the coefficient for variation [CV; CV=(standard deviation/mean)×100)] for all compound test wells; and (c) the Z′-factor [31]. Nominally active compounds from the pilot screen were determined using mean plus 3 times the standard deviation (Mean+3SD) was used as the cut-off.\nIn the absence of known pharmacological agents capable of inducing an increase of sAPPα release, we tested a small molecule (FIG. 2.4A insert, compound 1 in [2]) shown to decrease Aβ release. It was shown that decrease of Aβ release could be accompanied by the increase of soluble APPα, which has a neuroprotective effect. Compound 1 was tested using 20,000 cells/well in the range of 1.2-100 μM using 3-fold serial dilutions and 24 h incubation as an assay endpoint. Increase of sAPPα release was observed only in wells where 100 μM of compound 1 was added either with or without FBS (FIG. 2.4A). Viability of cells was also tested in the presence of 1.2-100 μM of compound 1 to ascertain that the increase of sAPPα release is not due to excessive cell death. Consistent with the above described results, cells were less viable in the absence of FBS. In the presence of 1.2-33 μM of compound 1, cells were approximately 10% less viable than untreated control either with or without FBS (FIG. 2.4B).\nTo evaluate the ability of the assay to identify compounds that increase the release of sAPPα a pilot screen was conducted using FDA approved oncology set (n=101) and TPIMS heterocycles library (n=700). The pilot screen was performed using five 384 well plates. […]"}, "TrkA": {"target": "TrkA (Homo sapiens, UniProt P04629)", "sequence (P04629 33-796, species assumed)": "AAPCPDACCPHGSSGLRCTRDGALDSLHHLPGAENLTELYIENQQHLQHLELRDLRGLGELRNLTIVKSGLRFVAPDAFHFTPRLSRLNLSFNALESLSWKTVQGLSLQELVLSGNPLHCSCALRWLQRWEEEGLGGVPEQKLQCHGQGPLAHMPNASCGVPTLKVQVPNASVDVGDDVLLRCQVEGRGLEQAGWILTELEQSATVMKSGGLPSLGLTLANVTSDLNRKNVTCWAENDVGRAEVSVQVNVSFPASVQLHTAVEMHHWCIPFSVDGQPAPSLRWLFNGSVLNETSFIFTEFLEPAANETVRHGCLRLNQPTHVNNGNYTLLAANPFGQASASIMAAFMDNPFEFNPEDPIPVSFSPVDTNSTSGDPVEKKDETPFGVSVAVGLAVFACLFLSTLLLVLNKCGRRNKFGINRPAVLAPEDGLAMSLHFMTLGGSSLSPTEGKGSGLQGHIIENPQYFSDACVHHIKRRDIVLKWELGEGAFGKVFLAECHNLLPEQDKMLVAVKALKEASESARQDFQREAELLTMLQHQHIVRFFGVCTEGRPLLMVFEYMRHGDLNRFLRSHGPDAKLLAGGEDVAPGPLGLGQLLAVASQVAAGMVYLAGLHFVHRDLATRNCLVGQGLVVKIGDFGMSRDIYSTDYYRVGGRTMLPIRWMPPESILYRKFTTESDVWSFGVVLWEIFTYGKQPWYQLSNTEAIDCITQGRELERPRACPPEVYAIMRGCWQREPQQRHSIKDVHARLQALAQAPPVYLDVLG", "assay": "Table of THPI-244 analogs: TrkA increase"}, "[3]": {"test_system": "soluble APPα, soluble APPβ, Aβ", "assay": "APP processing blots after SAHA, NT2 cells", "format": "cell-based, human", "excerpt": "We utilized a commercially available AlphaLISA detection kit to develop an HTS assay for identification of compounds that increase sAPPα production in CHO cells stably expressing APP751 (7WD10 cells) (FIG. 2.1B). There are several cell lines that have been used extensively in Alzheimer's disease research. For example, NT2 cells are highly used in AD basic and drug discovery research because they are derived from a human embryonal carcinoma cell line and they can be differentiated into post-mitotic neuron-like cells that develop functional dendrites and axons resembling primary neurons of the human brain [39]. NT2 cells also synthesize amyloid precursor protein important in Alzheimer's disease. However, the rate of growth of NT2 cells is much slower than rate of growth of 7WD10s cells, which makes them less HTS-amenable. We have analyzed both 7WD10 and NT2 cells for expression of the hallmark proteins of Alzheimer's disease: soluble APPα, soluble APPβ, Arβ, and membrane-bound full length APP (APP-FL). […] Since it was shown that broad HDAC inhibition results in a decrease of AR and an increase of soluble APPα [41] we tested both cell lines for the effect of application of SAHA (suberoylanilide hydroxamic acid or vorinostat), a pan-HDAC inhibitor [42]."}, "[4]": {"test_system": "soluble APPα, soluble APPβ, Aβ", "assay": "APP processing blots after SAHA, 7WD10 cells", "format": "cell-based", "experimental": "Western blot sAPPα release assay. 7WD10 cells were grown in 6-well plates and treated with test compounds and SAHA (vorinostat) at several concentrations in duplicate wells. After 24 h of drug exposure, the conditioned media (CM) was collected, centrifuged to remove cell debris and subjected to SDS-PAGE electrophoresis. sAPPα (6E10, mouse IgG from IBL America ltd) was detected using indicated antibody. To detect APP-FL holoprotein and C-terminal fragments (CTFs, CT15 antibody), the cells were lysed using lysis buffer (1% NP40) with complete protease inhibitor mix (Sigma) supplemented with sodium vanadate and microcystine. Samples were subjected to SDS-PAGE, transferred and immunoblotted with indicated antibodies and detected by enhanced chemiluminescence method. Quantification of Western blot signals was done using ImageJ software.\nWe utilized a commercially available AlphaLISA detection kit to develop an HTS assay for identification of compounds that increase sAPPα production in CHO cells stably expressing APP751 (7WD10 cells) (FIG. 2.1B). There are several cell lines that have been used extensively in Alzheimer's disease research. […] We have analyzed both 7WD10 and NT2 cells for expression of the hallmark proteins of Alzheimer's disease: soluble APPα, soluble APPβ, Arβ, and membrane-bound full length APP (APP-FL). […]"}, "sAPPα [5]": {"test_system": "sAPPα", "assay": "sAPPα ELISA, NT2 cells stably expressing APP751", "format": "cell-based, human", "settings": "24 h", "experimental": "(§1) (5). To confirm the effect of THPI-244 on sAPPα levels in a neuronal cell line and by a tertiary assay, we exposed human Neuron-committed Teratocarcinoma cell line (NT2) stably expressing human APP751 to different concentrations of THPI-244 for 24 h and compared with that of Bryostatin, a classical activator of PKC known to stimulate sAPPα release. […] Levels of sAPPα were measured by ELISA using commercially available kit (cat #27734, IBL-America, Minneapolis, Minn., USA). […] Similar biphasic effect of Bryostatin was confirmed for Aβ42 also, measured again in NT2 stable cells by ELISA (cat #KHB3441, Life Technologies, Grand Island, N.Y., USA). Consistent with sAPPα, THPI-244 decreased Aβ42 levels dose-dependently starting from 50 nM (28%, p<0.05) to 2000 nM (64%, p<0.001) (n=4 independent experiments) (FIG. 1.7). Thus THPI-244 increased non-amyloidogenic processing of APP in NT2 cells."}, "Aβ42": {"test_system": "Aβ42", "assay": "Aβ42 ELISA, NT2 stable cells", "format": "cell-based, human", "experimental": "as §1"}, "sAPPα [6]": {"test_system": "sAPPα", "assay": "sAPPα ELISA, fibroblasts derived from AD patients", "format": "cell-based, human", "settings": "24 h", "experimental": "(1). […] Therefore, we first used fibroblasts derived from AD patients (AG06263C, Coriell Cell repository, supported by NINDS/NIH) and exposed to THPI-244 for 24 h and measured sAPPα release by ELISA as done above for NT2 cells. […] We also confirmed dose-dependent effect of THPI-244 on sAPPα levels in human primary neurons transiently transfected with APP751 with Swedish mutation which is trafficked differently from WT APP and releases more sAPPα. Human neurons were grown on specially coated glass coverslips (cat #GG-18-PDL, NeuVitro, Germany). We could reproducibly achieve nearly 30% transfection efficiency using a nanoparticle based transfection reagent called Neuromag (cat #NM150299, OZ Biosciences, France)."}, "human sAPPα": {"test_system": "human sAPPα", "assay": "sAPPα release ELISA, 7WD10 cells", "format": "cell-based", "settings": "24 h", "experimental": "Starting from p-methylbenzhydrylamine hydrochloride (MBHA.HCl) resin; we developed different approaches toward the diversity oriented solid-phase parallel synthesis of different aminothiazole compounds 1-6 (Scheme 1) (Micheals, H A et al., 2014, ACS Comb. Sci. 16, 1-4; Nefzi, A et al., 2010, J. Org. Chem. 75, 7939-7941). 575 thiazole compounds were synthesized and were tested for sAPPα increasing activity using CHO cells stably expressing APP751wt. For initial screenings we used a cell-based human sAPPα ELISA kit (cat #27734, IBL Co., ltd, Japan) following instructions from the manufacturer. The method involves sandwich ELISA and use of two specific antibodies and tetra methyl benzidine as a coloring agent. […]\nsAPPα and Aβ40 release ELISA assay. […] The principle of the method is based on the use of tetra methyl benzidine (TMB) as a chromogen and the strength of the generated color is proportional to the quantities of human sAPPα. […] Plates were incubated with chromogen solution for 30 minutes, and read at 450 nm after adding stop solution. Levels of Aβ40 in the CM treated with different concentrations of compound 1 as detailed above were measured by sandwich ELISA exactly as described previously. Aβ40 was captured with Ab9 antibody (epitope, 1-16 of Aβ40) and detected with horseradish peroxidase-conjugated Ab13.1.1 antibody (epitope, 35-40 of Aβ40)."}}}
{"smiles": "CCC(C)C(=O)N1CCN(Cc2csc(NC[C@H](Cc3ccc(O)cc3)NC(=O)Cc3ccccc3)n2)CC1", "note": "(stereo partly drawn) [THPI-326]", "values": [{"measurement": "increase of sAPPα over untreated control cells (Western blot)", "setting": "[1]", "value": 2, "unit": "fold"}, {"measurement": "increase of Alpha signal (sAPPα release)", "setting": "[2]; 5 μM, 7WD10 cells, 24 h", "value": "~2", "unit": "fold"}]}
{"smiles": "c1ccc(CCNc2nc(CN3CCCCC3)cs2)cc1", "note": "[TPI-2336-100]", "values": [{"measurement": "% TrkA ⬆", "setting": "TrkA", "value": 54, "unit": "%"}]}
{"smiles": "c1ccc(CCNc2nc(CN3CCOCC3)cs2)cc1", "note": "[TPI-2336-99]", "values": [{"measurement": "% TrkA ⬆", "setting": "TrkA", "value": 51, "unit": "%"}]}
{"smiles": "O=C(CCCCCCC(=O)Nc1ccccc1)NO", "note": "[SAHA, suberoylanilide hydroxamic acid]", "values": [{"measurement": "change of Aβ", "setting": "[3]", "value": "decrease"}, {"measurement": "change of Aβ", "setting": "[4]", "value": "decrease"}]}
{"smiles": "CCC/C=C/C=C/C(=O)O[C@H]1/C(=C/C(=O)OC)C[C@H]2C[C@H]([C@@H](C)O)OC(=O)C[C@H](O)C[C@@H]3C[C@H](OC(C)=O)C(C)(C)[C@](O)(C[C@@H]4C/C(=C/C(=O)OC)C[C@H](/C=C/C(C)(C)[C@]1(O)O2)O4)O3", "note": "[Bryostatin, reference compound]", "values": [{"measurement": "effect on sAPPα release", "setting": "sAPPα [5]", "value": "increased sAPPα at low nM concentrations, but then decreased levels dose-dependently"}, {"measurement": "lowest concentration with significant increase of sAPPα", "setting": "sAPPα [5]", "value": 10, "unit": "nM"}, {"measurement": "lowest concentration with significant decrease of Aβ42", "setting": "Aβ42", "value": 10, "unit": "nM"}, {"measurement": "lowest concentration with significant increase of sAPPα", "setting": "sAPPα [6]", "value": 10, "unit": "nM"}]}
{"smiles": "O=C(NCCSCc1cccc(Cl)c1)c1c(Cl)cccc1Cl", "note": "[compound 1, 2,6-dichloro-N-{2-[(3-chlorobenzyl)thio]ethyl}benzamide, reference compound]", "values": [{"measurement": "increase of sAPPα over untreated control cells (ELISA)", "setting": "human sAPPα; 100 μM", "value": 2, "unit": "fold"}, {"measurement": "maximal increase of sAPPα (ELISA)", "setting": "human sAPPα; 150 μM", "value": 3, "unit": "fold"}, {"measurement": "increase of AlphaLISA signal", "setting": "[2]; 100 μM compound 1", "value": 2, "unit": "fold"}, {"measurement": "concentration at which increase of sAPPα release was observed", "setting": "[2]; range 1.2-100 μM, 24 h, with or without FBS", "value": 100, "unit": "µM"}]}
{"smiles": "Cc1cnc(C(=O)N[C@H](CNc2nc(CN3CCNCC3)cs2)c2ccccc2)cn1", "note": "[TPI-2336-55]", "values": [{"measurement": "% TrkA ⬆", "setting": "TrkA", "value": 69, "unit": "%"}]}
